Assay results published in article PMC4448990 (Pharmacology Research & Perspectives, 2015).
Where “and” joins values, the source holds several entries; their conditions need not be identical. Identical values can stand only once. Like-named read-outs stand apart in the source and are kept apart here.

Experiments:
[1] = test system: Inositol triphosphate, IP3; assay: in vitro selectivity profile; type: binding; conditions: eslicarbazepine 400 μmol/L
Melatonin, nonselective = assay: in vitro selectivity profile; type: binding; conditions: eslicarbazepine 400 μmol/L
[2] = cited from earlier work
[3] = test system: GABA A, BDZ, alpha 5 site; assay: in vitro selectivity profile; type: binding; conditions: eslicarbazepine 400 μmol/L
[4] = plasma and brain concentrations of eslicarbazepine after ESL; type: in vivo; conditions: mouse; for concentration at 60 min: 100 mg/kg; for concentration at 15 min: Amygdala kindling
Opioid, delta 2 (h) = Opioid, delta 2 (h) (Homo sapiens, UniProt P41143); assay: in vitro selectivity profile; type: binding
[5] = molecular target: Esterase, acetylcholine (h) (Homo sapiens, UniProt P22303); assay: in vitro selectivity profile; type: biochemical
[6] = test system: GABA, chloride, TBOB site; assay: in vitro selectivity profile; type: binding; conditions: eslicarbazepine 400 μmol/L
[7] = test system: persistent Na+ current (INaP); conditions: 300 μmol/L, ref Döser et al. [2013a], [2014], cited from earlier work
[8] = eslicarbazepine; ref Bialer and Soares-da-Silva [2012]; cited from earlier work
Dopamine, D4.4 (h) = Dopamine, D4.4 (h) (Homo sapiens, UniProt P21917); assay: in vitro selectivity profile; type: binding
[9] = molecular target: Protease, caspase, CASP-10 (h) (Homo sapiens, UniProt Q92851); assay: in vitro selectivity profile; type: biochemical
GABA A, agonist site = assay: in vitro selectivity profile; type: binding; conditions: eslicarbazepine 400 μmol/L
[10] = test system: Cholecystokinin, CCK2 (CCKB); assay: in vitro selectivity profile; type: binding; conditions: eslicarbazepine 400 μmol/L
[11] = molecular target: Protease, caspase, CASP-1 (h) (Homo sapiens, UniProt P29466); assay: in vitro selectivity profile; type: biochemical
[12] = molecular target: human α3β2γ2 GABAA receptors (Homo sapiens, UniProt P18507+P34903+P47870); assay: submaximal GABA currents in Ltk cells; type: cell-based
[13] = molecular target: Anhydrase, carbonic, isozyme II (h) (Homo sapiens, UniProt P00918); assay: in vitro selectivity profile; type: biochemical
[14] = test system: Nicotinic, neuronal [a-BnTx insensitive] (h); assay: in vitro selectivity profile; type: binding, human; conditions: eslicarbazepine 400 μmol/L
[15] = molecular target: Anhydrase, carbonic, isozyme I (h) (Homo sapiens, UniProt P00915); assay: in vitro selectivity profile; type: biochemical
Neuropeptide, NPY2 (h) = Neuropeptide, NPY2 (h) (Homo sapiens, UniProt P49146); assay: in vitro selectivity profile; type: binding
Serotonin, 5HT1D (h) = Serotonin, 5HT1D (h) (Homo sapiens, UniProt P28221); assay: in vitro selectivity profile; type: binding
human GRIA1 receptor = human GRIA1 receptor (Homo sapiens, UniProt P42261); assay: AMPA-receptor-mediated currents in CHO cells; type: cell-based; conditions: CHO cells, human GRIA1
Kinase, protein, PKA (h) = Kinase, protein, PKA (h) (Homo sapiens, UniProt P17612); assay: in vitro selectivity profile; type: biochemical
[16] = test system: Nitric oxide, NOS (neuronal-binding); assay: in vitro selectivity profile; conditions: eslicarbazepine 400 μmol/L
[17] = molecular target: human α5β2γ2 GABAA receptors (Homo sapiens, UniProt P18507+P31644+P47870); assay: submaximal GABA currents in Ltk cells; type: cell-based
[18] = test system: Glutamate, NMDA agonist site; assay: in vitro selectivity profile; type: binding; conditions: eslicarbazepine 400 μmol/L
[19] = molecular target: human α1β2γ2 GABAA receptors (Homo sapiens, UniProt P14867+P18507+P47870); assay: submaximal GABA currents in Ltk cells; type: cell-based
Angiotensin II, AT2 = assay: in vitro selectivity profile; type: binding; conditions: eslicarbazepine 400 μmol/L
[20] = test system: sodium channels endogenously expressed in N1E-115 mouse neuroblastoma cells; conditions: 250 μmol/L; ref Hebeisen et al. [2014]; cited from earlier work
Glutamate, MK-801 site = assay: in vitro selectivity profile; type: binding; conditions: eslicarbazepine 400 μmol/L
[21] = test system: Somatostatin, nonselective; assay: in vitro selectivity profile; type: binding; conditions: eslicarbazepine 400 μmol/L
Adenosine, A1 (h) = Adenosine, A1 (h) (Homo sapiens, UniProt P30542); assay: in vitro selectivity profile; type: binding
[22] = test system: Transferase, choline acetyl; assay: in vitro selectivity profile; type: biochemical; conditions: eslicarbazepine 400 μmol/L
[23] = test system: Corticotropin-releasing factor, nonselective; assay: in vitro selectivity profile; type: binding; conditions: eslicarbazepine 400 μmol/L
Cannabinoid, CB1 (h) = Cannabinoid, CB1 (h) (Homo sapiens, UniProt P21554); assay: in vitro selectivity profile; type: binding
[24] = cited from earlier work; remark: listed apart in the source
[25] = Amygdala kindling, ESL 200 mg/kg i.p., 15 min, ref Soerensen et al. ([2011])
[26] = Amygdala kindling, ESL 300 mg/kg i.p., 15 min, ref Soerensen et al. ([2011])
[27] = Corneal kindling, ESL 100 mg/kg i.p., 60 min, ref Pekcec et al. ([2011])
[28] = MES test, ESL 50 mg/kg p.o., 60 min, ref Pires et al. ([2011])

Chain of human α3β2γ2 GABAA receptors (P34903 29-492): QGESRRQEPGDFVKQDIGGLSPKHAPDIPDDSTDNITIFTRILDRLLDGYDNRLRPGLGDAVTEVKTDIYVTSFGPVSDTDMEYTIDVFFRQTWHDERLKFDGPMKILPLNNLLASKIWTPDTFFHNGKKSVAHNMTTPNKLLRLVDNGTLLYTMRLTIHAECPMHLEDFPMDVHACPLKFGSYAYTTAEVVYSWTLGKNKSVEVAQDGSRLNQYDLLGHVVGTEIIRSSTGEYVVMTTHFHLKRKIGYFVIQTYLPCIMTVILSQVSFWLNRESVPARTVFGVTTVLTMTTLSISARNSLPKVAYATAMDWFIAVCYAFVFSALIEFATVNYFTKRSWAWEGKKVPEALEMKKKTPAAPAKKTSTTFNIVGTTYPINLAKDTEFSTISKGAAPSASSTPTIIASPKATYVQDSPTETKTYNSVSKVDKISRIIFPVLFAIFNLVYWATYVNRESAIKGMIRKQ
Chain of human α3β2γ2 GABAA receptors (P47870 25-512 limits assumed): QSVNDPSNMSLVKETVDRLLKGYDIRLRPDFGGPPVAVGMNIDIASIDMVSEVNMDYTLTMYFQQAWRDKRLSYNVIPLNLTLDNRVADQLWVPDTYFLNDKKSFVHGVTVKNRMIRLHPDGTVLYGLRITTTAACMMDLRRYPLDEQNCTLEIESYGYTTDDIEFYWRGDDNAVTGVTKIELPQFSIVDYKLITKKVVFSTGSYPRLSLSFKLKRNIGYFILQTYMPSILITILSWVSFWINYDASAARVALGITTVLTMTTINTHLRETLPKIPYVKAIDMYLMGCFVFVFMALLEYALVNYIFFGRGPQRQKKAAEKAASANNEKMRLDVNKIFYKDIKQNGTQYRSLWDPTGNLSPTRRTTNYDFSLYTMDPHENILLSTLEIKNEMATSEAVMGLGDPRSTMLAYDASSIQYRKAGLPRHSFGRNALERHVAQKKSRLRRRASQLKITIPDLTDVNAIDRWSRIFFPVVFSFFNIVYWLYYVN
Chain of human α3β2γ2 GABAA receptors (P18507 40-475): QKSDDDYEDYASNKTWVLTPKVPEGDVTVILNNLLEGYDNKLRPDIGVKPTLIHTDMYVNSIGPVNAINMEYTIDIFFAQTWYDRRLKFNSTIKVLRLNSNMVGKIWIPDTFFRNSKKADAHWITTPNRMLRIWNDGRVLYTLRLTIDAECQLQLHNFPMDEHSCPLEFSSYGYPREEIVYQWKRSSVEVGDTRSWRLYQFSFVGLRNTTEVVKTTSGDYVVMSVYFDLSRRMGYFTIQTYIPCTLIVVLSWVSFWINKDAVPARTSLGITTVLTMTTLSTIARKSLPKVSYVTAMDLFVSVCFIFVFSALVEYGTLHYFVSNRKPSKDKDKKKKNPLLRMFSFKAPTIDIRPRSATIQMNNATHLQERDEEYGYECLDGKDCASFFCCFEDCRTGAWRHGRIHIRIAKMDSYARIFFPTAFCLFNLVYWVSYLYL
Chain of human α5β2γ2 GABAA receptors (P31644 32-462): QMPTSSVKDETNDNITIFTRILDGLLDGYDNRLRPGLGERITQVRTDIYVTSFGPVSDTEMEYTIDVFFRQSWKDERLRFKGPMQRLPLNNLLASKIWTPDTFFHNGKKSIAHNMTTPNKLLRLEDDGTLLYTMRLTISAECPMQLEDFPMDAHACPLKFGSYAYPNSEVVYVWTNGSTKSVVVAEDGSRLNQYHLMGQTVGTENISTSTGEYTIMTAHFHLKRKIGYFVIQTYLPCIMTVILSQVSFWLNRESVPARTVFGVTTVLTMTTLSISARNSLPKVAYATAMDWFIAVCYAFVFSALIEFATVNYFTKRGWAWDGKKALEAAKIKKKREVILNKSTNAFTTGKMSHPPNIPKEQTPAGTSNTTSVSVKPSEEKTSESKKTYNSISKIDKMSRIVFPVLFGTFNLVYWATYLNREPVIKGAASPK
Chain of human α5β2γ2 GABAA receptors (P47870 25-512 limits assumed): as the sequence (P47870 25-512 limits assumed) above
Chain of human α5β2γ2 GABAA receptors (P18507 40-475): as the sequence (P18507 40-475) above
Chain of human α1β2γ2 GABAA receptors (P14867 28-456): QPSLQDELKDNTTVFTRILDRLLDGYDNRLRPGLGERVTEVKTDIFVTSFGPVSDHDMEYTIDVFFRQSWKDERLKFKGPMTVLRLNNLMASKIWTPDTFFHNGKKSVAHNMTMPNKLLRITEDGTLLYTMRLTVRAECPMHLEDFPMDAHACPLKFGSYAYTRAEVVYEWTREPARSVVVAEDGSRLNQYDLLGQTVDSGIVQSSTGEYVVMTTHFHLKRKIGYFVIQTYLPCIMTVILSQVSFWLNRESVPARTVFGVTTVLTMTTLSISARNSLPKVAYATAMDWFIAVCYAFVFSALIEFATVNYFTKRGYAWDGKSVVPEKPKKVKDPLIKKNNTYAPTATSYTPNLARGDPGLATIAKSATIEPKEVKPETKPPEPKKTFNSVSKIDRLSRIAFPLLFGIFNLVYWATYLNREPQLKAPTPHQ
Chain of human α1β2γ2 GABAA receptors (P47870 25-512 limits assumed): as the sequence (P47870 25-512 limits assumed) above
Chain of human α1β2γ2 GABAA receptors (P18507 40-475): as the sequence (P18507 40-475) above
Chain of Cannabinoid, CB1 (h) (P21554 whole entry): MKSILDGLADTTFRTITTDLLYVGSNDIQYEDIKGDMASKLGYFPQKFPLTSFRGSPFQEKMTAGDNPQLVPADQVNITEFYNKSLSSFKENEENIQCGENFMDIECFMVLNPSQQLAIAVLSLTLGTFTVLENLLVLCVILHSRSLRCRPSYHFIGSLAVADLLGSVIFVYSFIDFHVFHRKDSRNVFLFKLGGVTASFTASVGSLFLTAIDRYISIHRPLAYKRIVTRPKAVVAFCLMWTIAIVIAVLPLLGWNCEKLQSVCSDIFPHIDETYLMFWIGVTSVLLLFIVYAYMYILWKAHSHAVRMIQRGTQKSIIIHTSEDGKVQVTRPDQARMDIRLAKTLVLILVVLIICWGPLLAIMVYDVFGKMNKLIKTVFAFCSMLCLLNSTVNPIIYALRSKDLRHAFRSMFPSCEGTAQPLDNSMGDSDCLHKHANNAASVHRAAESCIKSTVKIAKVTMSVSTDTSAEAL
Chain of Protease, caspase, CASP-1 (h) (P29466 120-297 limits assumed): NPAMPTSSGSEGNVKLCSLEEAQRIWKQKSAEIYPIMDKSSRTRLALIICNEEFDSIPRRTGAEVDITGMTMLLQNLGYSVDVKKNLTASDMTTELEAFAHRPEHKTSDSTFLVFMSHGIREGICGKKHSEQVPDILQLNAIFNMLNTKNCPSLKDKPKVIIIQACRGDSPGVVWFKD
Chain of Protease, caspase, CASP-1 (h) (P29466 317-404 limits assumed): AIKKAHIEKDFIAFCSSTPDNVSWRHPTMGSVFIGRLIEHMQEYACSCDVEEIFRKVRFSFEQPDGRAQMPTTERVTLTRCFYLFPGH
Chain of Esterase, acetylcholine (h) (P22303 32-614): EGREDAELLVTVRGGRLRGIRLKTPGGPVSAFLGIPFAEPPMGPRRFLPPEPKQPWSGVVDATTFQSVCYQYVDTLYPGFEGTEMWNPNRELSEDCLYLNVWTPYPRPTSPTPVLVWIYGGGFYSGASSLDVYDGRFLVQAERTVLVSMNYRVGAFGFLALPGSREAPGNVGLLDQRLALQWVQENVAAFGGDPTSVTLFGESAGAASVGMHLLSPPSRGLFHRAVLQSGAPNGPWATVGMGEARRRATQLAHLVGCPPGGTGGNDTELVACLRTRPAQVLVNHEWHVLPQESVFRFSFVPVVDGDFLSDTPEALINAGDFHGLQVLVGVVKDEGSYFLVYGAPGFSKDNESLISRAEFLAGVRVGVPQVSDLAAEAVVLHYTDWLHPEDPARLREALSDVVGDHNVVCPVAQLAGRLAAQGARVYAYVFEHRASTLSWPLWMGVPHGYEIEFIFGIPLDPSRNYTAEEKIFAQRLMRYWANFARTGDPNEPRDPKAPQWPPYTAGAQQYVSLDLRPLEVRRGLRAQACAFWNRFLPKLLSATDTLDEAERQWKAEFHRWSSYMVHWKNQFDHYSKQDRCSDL
Chain of Opioid, delta 2 (h) (P41143 whole entry): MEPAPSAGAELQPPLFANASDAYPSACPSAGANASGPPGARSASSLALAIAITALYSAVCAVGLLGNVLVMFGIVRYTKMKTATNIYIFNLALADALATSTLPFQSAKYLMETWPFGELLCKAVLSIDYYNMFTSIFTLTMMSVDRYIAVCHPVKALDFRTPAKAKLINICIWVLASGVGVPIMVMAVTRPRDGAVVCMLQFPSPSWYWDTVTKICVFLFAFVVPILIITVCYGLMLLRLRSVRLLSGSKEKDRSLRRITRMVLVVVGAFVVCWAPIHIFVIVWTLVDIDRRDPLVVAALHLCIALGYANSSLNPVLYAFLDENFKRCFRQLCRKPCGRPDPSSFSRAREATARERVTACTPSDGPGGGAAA
Chain of Anhydrase, carbonic, isozyme I (h) (P00915 whole entry): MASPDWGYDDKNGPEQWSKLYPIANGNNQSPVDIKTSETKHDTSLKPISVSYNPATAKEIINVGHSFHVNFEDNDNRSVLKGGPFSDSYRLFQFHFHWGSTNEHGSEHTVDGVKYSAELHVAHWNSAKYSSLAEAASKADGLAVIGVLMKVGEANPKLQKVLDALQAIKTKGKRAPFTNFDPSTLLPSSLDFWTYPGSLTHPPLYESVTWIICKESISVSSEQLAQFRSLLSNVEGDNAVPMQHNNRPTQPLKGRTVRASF
Chain of Protease, caspase, CASP-10 (h) (Q92851 220-415 limits assumed): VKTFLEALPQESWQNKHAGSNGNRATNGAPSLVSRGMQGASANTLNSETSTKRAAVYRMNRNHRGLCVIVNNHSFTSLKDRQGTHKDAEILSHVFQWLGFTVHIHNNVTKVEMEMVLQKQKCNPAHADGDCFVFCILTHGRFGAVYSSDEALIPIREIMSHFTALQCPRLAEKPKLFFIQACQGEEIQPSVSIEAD
Chain of Protease, caspase, CASP-10 (h) (Q92851 416-521 limits assumed): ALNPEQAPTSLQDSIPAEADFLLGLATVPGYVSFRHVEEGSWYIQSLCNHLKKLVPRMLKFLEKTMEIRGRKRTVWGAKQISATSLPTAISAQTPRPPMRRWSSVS

## NC(=O)N1c2ccccc2C[C@H](O)c2ccccc21 [eslicarbazepine]
[1]
  % inhibition: 0.45%
Melatonin, nonselective
  % inhibition: 17.43%
[2]; [25]
  Brain (whole volume) Eslicarbazepine: 37.5 nmol/g
  Plasma eslicarbazepine: 236.2 µmol/L
[2]; [26]
  Brain (whole volume) Eslicarbazepine: 58.7 nmol/g
  Plasma eslicarbazepine: 282.8 µmol/L
[2]; [27]
  Brain (whole volume) Eslicarbazepine: 67.7 nmol/g
  Plasma eslicarbazepine: 168.1 µmol/L
[2]; [28]
  Brain (whole volume) Eslicarbazepine: 22 nmol/g and 22.0 nmol/g
  Plasma eslicarbazepine: 32 µmol/L and 31.5 µmol/L
[3]
  % inhibition: 23.75%
[4]; NMRI, Swiss, brain and plasma, other: oral or intraperitoneal
  Kp at 60 min: 3.4 to 5.8
[4]; NMRI, brain (lipid fraction), intraperitoneal, Brain (lipid fraction) Eslicarbazepine, Corneal kindling, ESL 100 mg/kg i.p.
  concentration at 60 min: 564 µM
[4]; NMRI, brain (lipid fraction), intraperitoneal, 200 mg/kg, Brain (lipid fraction) Eslicarbazepine, ESL 200 mg/kg i.p.
  concentration at 15 min: 313 µM
[4]; NMRI, brain (lipid fraction), intraperitoneal, 300 mg/kg, Brain (lipid fraction) Eslicarbazepine, ESL 300 mg/kg i.p.
  concentration at 15 min: 489 µM
[4]; NMRI, brain (organic phase), intraperitoneal, Brain (organic phase) Eslicarbazepine, Corneal kindling, ESL 100 mg/kg i.p.
  concentration at 60 min: 314 µM
[4]; NMRI, brain (organic phase), intraperitoneal, 200 mg/kg, Brain (organic phase) Eslicarbazepine, ESL 200 mg/kg i.p.
  concentration at 15 min: 174 µM
[4]; NMRI, brain (organic phase), intraperitoneal, 300 mg/kg, Brain (organic phase) Eslicarbazepine, ESL 300 mg/kg i.p.
  concentration at 15 min: 273 µM
[4]; Swiss, brain (lipid fraction), oral, Brain (lipid fraction) Eslicarbazepine, Latrunculin A-induced seizures, ESL 100 mg/kg p.o.
  concentration at 60 min: 303 µM
[4]; Swiss, brain (organic phase), oral, Brain (organic phase) Eslicarbazepine, Latrunculin A-induced seizures, ESL 100 mg/kg p.o.
  concentration at 60 min: 169 µM
Opioid, delta 2 (h)
  inhibition at 400 µM: 7.91%
[5]
  inhibition at 400 µM: 0%
[6]
  % inhibition: 38.95%
[7]; Scn1b null mice
  INaP in Scn1b null mice: did not cause a paradoxical upregulation of INaP
[7]; wild-type mice
  maximal INaP conductance and firing rate: significantly reduce maximal INaP conductance and efficiently decrease the firing rate
[8]
  binding to nonspecific proteins (protein binding): ~30%
Dopamine, D4.4 (h)
  inhibition at 400 µM: 0%
[9]
  inhibition at 400 µM: 0%
GABA A, agonist site
  % inhibition: 0.0%
[10]
  % inhibition: 32.83%
[11]
  inhibition at 400 µM: 0%
[12]; 50 μmol/L
  GABA inward current stimulation, α3β2γ2, Mean ± SEM: 95.6 ± 4.8
[12]; 100 μmol/L
  GABA inward current stimulation, α3β2γ2, Mean ± SEM: 97.9 ± 4.2
[12]; 250 μmol/L
  GABA inward current stimulation, α3β2γ2, Mean ± SEM: 96.4 ± 2.2
[12]; 500 μmol/L
  GABA inward current stimulation, α3β2γ2, Mean ± SEM: 91.6 ± 5.6
[12]; 50–500 μmol/L
  effect on submaximal α3β2γ2 GABA currents: did not significantly change submaximal GABA currents
[13]
  inhibition at 400 µM: 5.93%
[14]
  % inhibition: 23.46%
[15]
  inhibition at 400 µM: 27.7%
Neuropeptide, NPY2 (h)
  inhibition at 400 µM: 8.43%
Serotonin, 5HT1D (h)
  inhibition at 400 µM: 16.4%
Human GRIA1 receptor
  IC50, AMPA currents: neither eslicarbazepine nor CBZ significantly changed AMPA currents
Kinase, protein, PKA (h)
  inhibition at 400 µM: 3.67%
[16]
  % inhibition: 0.0%
[17]; 50 μmol/L
  GABA inward current stimulation, α5β2γ2, Mean ± SEM: 95.2 ± 2.2
[17]; 100 μmol/L
  GABA inward current stimulation, α5β2γ2, Mean ± SEM: 93.9 ± 0.6
[17]; 250 μmol/L
  GABA inward current stimulation, α5β2γ2, Mean ± SEM: 93.5 ± 1.8
[17]; 500 μmol/L
  GABA inward current stimulation, α5β2γ2, Mean ± SEM: 89.7 ± 3.4
[17]; 50–500 μmol/L
  effect on submaximal α5β2γ2 GABA currents: did not significantly change submaximal GABA currents
[18]
  % inhibition: 0.0%
[19]; 50 μmol/L
  GABA inward current stimulation, α1β2γ2, Mean ± SEM: 103.3 ± 2.0
[19]; 100 μmol/L
  GABA inward current stimulation, α1β2γ2, Mean ± SEM: 95.9 ± 1.0
[19]; 250 μmol/L
  GABA inward current stimulation, α1β2γ2, Mean ± SEM: 97.8 ± 1.1
[19]; 500 μmol/L
  GABA inward current stimulation, α1β2γ2, Mean ± SEM: 99.4 ± 0.8
[19]; 50–500 μmol/L
  effect on submaximal α1β2γ2 GABA currents: did not significantly change submaximal GABA currents
Angiotensin II, AT2
  % inhibition: 11.32%
[20]
  recovery of fast inactivated channels: recovered similar to control conditions
Glutamate, MK-801 site
  % inhibition: 15.45%
[21]
  % inhibition: 0.0%
Adenosine, A1 (h)
  inhibition at 400 µM: 32.3%
[22]
  % inhibition: 0.0%
[23]
  % inhibition: 26.95%
Cannabinoid, CB1 (h)
  inhibition at 400 µM: 20.4%
[24]; 1200 mg QD oral ESL, ref Nunes et al. [2013]
  CSF Cmax eslicarbazepine levels: 30 µM
[24]; humans, ref Almeida and Soares-da-Silva [2007]
  share of circulating active moieties after oral ESL: ~95%
[24]; oral ESL 1200 mg QD, ref Perucca et al. [2011]
  peak plasma concentrations of eslicarbazepine: 90 µmol/L
